Test results reported in patent US20170152226A1, “FUNCTIONALISED AND SUBSTITUTED INDOLES AS ANTI-CANCER AGENTS” (Novogen Ltd., priority 2014, published 2017).
Read-outs that look alike come from different tables or passages of the source.

Key:
Assay in all cases: Anti-proliferative activity, cell-titre luminescent viability assay
Format in all cases: cell-based
A549 = conditions: read-out: IC50 Lung (NSLC) A549
Method: (§1) The ability of compounds 3501-3540 and 3542-3545 to inhibit the proliferation of cancer cells representative of neuroblastoma, melanoma, prostate cancer, colorectal cancer, non-small cell lung carcinoma, and triple negative breast cancer was assessed. Briefly, a pre-determined number of cells as calculated from cell growth assays for each of the cell lines employed were seeded into their respective culture medium (using ATCC culture parameters—http://www.atcc.org) and cultured for 24 hours at 37° C. and 5% CO2 in 96-well culture plates. Once attached, each cell line was then exposed to increasing concentrations of each respective analogue (0.03, 0.3, 3 and 30 μM for compounds in Table 1; 0.1, 0.3, 1, 3, 10 and 30 μM for compounds in Table 2), cultured for a further 72 hours and exposed to cell-titre luminescent reagent (100 μL/well) for a further 30 min) to assess for cell viability. Luminescence was captured using an EnVision multilabel reader and the data for each analogue concentration was normalized, as a percentage, to the no treatment control. For compounds 3501, 3503, 3505-08, 3512-18, 3520, 3522-24 and 3531-36, semi-log plots of Percent of Control versus concentration were prepared and IC50 determined using linear regression analysis. For compounds 3502, 3504, 3509-11, 3519, 3521, 3525-30, 3537-40 and 3542-45, cell viability was normalized to control (vehicle alone) and dose-response curves, and half maximal effective concentration (EC50) values were determined using Graph Pad Prism 6 (nonlinear regression sigmoidal dose-response variable slope).

CaCo2 = conditions: read-out: IC50 Colorectal CaCo2
Method: as §1

DU145 = conditions: read-out: IC50 Prostate DU145
Method: as §1

MDA-MB-231 = conditions: read-out: IC50 Breast MDA-MB-231
Method: as §1

PC3 = conditions: read-out: IC50 Prostate PC3
Method: as §1

SK-Mel-28 = conditions: 72 hours, read-out: IC50 Melanoma SK-Mel-28
Method: as §1

SK-N-SH = conditions: read-out: IC50 Neuroblastoma SK-N-SH
Method: as §1

[1] = 72 hours, 0.03, 0.3, 3 and 30 μM, linear regression of semi-log plots
[2] = Homo sapiens, A549, 72 h, 0.1, 0.3, 1, 3, 10 and 30 μM, nonlinear regression sigmoidal dose-response (EC50)
[3] = Homo sapiens, Caco-2, 72 h, 0.1, 0.3, 1, 3, 10 and 30 μM, nonlinear regression sigmoidal dose-response (EC50)
[4] = Homo sapiens, DU-145, 72 h, 0.1, 0.3, 1, 3, 10 and 30 μM, nonlinear regression sigmoidal dose-response (EC50)
[5] = Homo sapiens, MDA-MB-231, 72 h, 0.1, 0.3, 1, 3, 10 and 30 μM, nonlinear regression sigmoidal dose-response (EC50)
[6] = Homo sapiens, PC-3, 72 h, 0.1, 0.3, 1, 3, 10 and 30 μM, nonlinear regression sigmoidal dose-response (EC50)
[7] = Homo sapiens, SK-MEL-28, 0.1, 0.3, 1, 3, 10 and 30 μM, nonlinear regression sigmoidal dose-response (EC50)
[8] = Homo sapiens, SK-N-SH, 72 h, 0.1, 0.3, 1, 3, 10 and 30 μM, nonlinear regression sigmoidal dose-response (EC50)

Row | SMILES | IC50 (A549; [2]) [µM] | IC50 (CaCo2; [3]) [µM] | IC50 (DU145; [4]) [µM] | IC50 (MDA-MB-231; [5]) [µM] | IC50 (PC3; [6]) [µM] | IC50 (SK-Mel-28; [7]) [µM] | IC50 (SK-N-SH; [8]) [µM] | further results
1 | COc1cccc(CCN2CCN(C(=O)c3ccc(Nc4ccc5c(c4)c(C)c(C)n5CCCN4CCN(C)CC4)cc3)CC2)c1 [Compound 3535, (4-((2,3-dimethyl-1-(3-(4-methylpiperazin-1-yl)propyl)-1H-indol-5-yl)amino)phenyl)(4-(3-methoxyphenethyl)piperazin-1-yl)methanone] | – | – | – | – | – | – | – | IC50 (A549; Homo sapiens, A549, 72 h, 0.03, 0.3, 3 and 30 μM, linear regression of semi-log plots): 2.7 µM; IC50 (CaCo2; Homo sapiens, Caco-2, 72 h, 0.03, 0.3, 3 and 30 μM, linear regression of semi-log plots): 3 µM; IC50 (DU145; Homo sapiens, DU-145, 72 h, 0.03, 0.3, 3 and 30 μM, linear regression of semi-log plots): 3.8 µM; IC50 (MDA-MB-231; Homo sapiens, MDA-MB-231, 72 h, 0.03, 0.3, 3 and 30 μM, linear regression of semi-log plots): 2.6 µM; IC50 (PC3; Homo sapiens, PC-3, 72 h, 0.03, 0.3, 3 and 30 μM, linear regression of semi-log plots): 3.7 µM; IC50 (SK-Mel-28; Homo sapiens, SK-MEL-28, 0.03, 0.3, 3 and 30 μM, linear regression of semi-log plots): 3.3 µM; IC50 (SK-N-SH; Homo sapiens, SK-N-SH, 72 h, 0.03, 0.3, 3 and 30 μM, linear regression of semi-log plots): 2.8 µM
2 | COc1ccc(CCN2CCN(C(=O)c3ccc(Nc4ccc5c(c4)c(C)c(C)n5CCCN4CCN(C)CC4)cc3)CC2)cc1 [Compound 3536, (4-((2,3-dimethyl-1-(3-(4-methylpiperazin-1-yl)propyl)-1H-indol-5-yl)amino)phenyl)(4-(4-methoxyphenethyl)piperazin-1-yl)methanone] | – | – | – | – | – | – | – | IC50 (A549; [1]): 3.1 µM; IC50 (CaCo2; [1]): 12.9 µM; IC50 (DU145; [1]): 3.6 µM; IC50 (MDA-MB-231; [1]): 2.5 µM; IC50 (PC3; [1]): 4.3 µM; IC50 (SK-Mel-28; 0.03, 0.3, 3 and 30 μM, linear regression of semi-log plots): 2.7 µM; IC50 (SK-N-SH; [1]): 2.9 µM
3 | Cc1c(C)n(CCCN2CCN(C)CC2)c2ccc(Cc3cccc(C(=O)N4CCN(CCc5ccc6ccccc6c5)CC4)c3)cc12 [Compound 3537, (3-((2,3-dimethyl-1-(3-(4-methylpiperazin-1-yl)propyl)-1H-indol-5-yl)methyl)phenyl)(4-(2-(naphthalen-2-yl)ethyl)piperazin-1-yl)methanone] | 3.6 | 5 | 5.8 | 4.8 | 8 | 4.8 | 4.2 | –
4 | Cc1c(C)n(CCCN2CCN(C)CC2)c2ccc(Cc3cccc(C(=O)N4CCN(CCc5cccc6ccccc56)CC4)c3)cc12 [Compound 3539, (3-((2,3-dimethyl-1-(3-(4-methylpiperazin-1-yl)propyl)-1H-indol-5-yl)methyl)phenyl)(4-(2-(naphthalen-1-yl)ethyl)piperazin-1-yl)methanone] | 3.9 | 4.6 | 3.9 | 2.8 | 3 | 2.2 | 1.7 | –
5 | COc1ccc2cccc(CCN3CCN(C(=O)c4cccc(Cc5ccc6c(c5)c(C)c(C)n6CCCN5CCN(C)CC5)c4)CC3)c2c1 [Compound 3540, (3-((2,3-dimethyl-1-(3-(4-methylpiperazin-1-yl)propyl)-1H-indol-5-yl)methyl)phenyl)(4-(2-(7-methoxynaphthalen-1-yl)ethyl)piperazin-1-yl)methanone] | 5 | 4 | 4.6 | 2.3 | 2.3 | 1.9 | 1.7 | –
6 | Cc1c(C)n(CCCN2CCN(C)CC2)c2ccc(Cc3ccc(C(=O)N4CCN(CCc5ccc6ccccc6c5)CC4)cc3)cc12 [Compound 3542, (4-((2,3-dimethyl-1-(3-(4-methylpiperazin-1-yl)propyl)-1H-indol-5-yl)methyl)phenyl) (4-(2-(naphthalen-2-yl)ethyl)piperazin-1-yl)methanone] | 3.1 | 3.9 | 3.9 | 2.8 | 3.6 | 1.4 | 1.6 | –
7 | COc1ccc2cc(CCN3CCN(C(=O)c4ccc(Cc5ccc6c(c5)c(C)c(C)n6CCCN5CCN(C)CC5)cc4)CC3)ccc2c1 [Compound 3543, (4-((2,3-dimethyl-1-(3-(4-methylpiperazin-1-yl)propyl)-1H-indol-5-yl)methyl)phenyl)(4-(2-(6-methoxynaphthalen-2-yl)ethyl)piperazin-1-yl)methanone] | 1.5 | 1.5 | 1.7 | 1.3 | 1.8 | 2 | 1.6 | –
8 | Cc1c(C)n(CCCN2CCN(C)CC2)c2ccc(Cc3ccc(C(=O)N4CCN(CCc5cccc6ccccc56)CC4)cc3)cc12 [Compound 3544, (4-((2,3-dimethyl-1-(3-(4-methylpiperazin-1-yl)propyl)-1H-indol-5-yl)methyl)phenyl)(4-(2-(naphthalen-1-yl)ethyl)piperazin-1-yl)methanone] | 5.7 | 13.5 | 9 | 8.2 | 8.1 | 7.2 | 7 | –
9 | COc1ccc2cccc(CCN3CCN(C(=O)c4ccc(Cc5ccc6c(c5)c(C)c(C)n6CCCN5CCN(C)CC5)cc4)CC3)c2c1 [Compound 3545, (4-((2,3-dimethyl-1-(3-(4-methylpiperazin-1-yl)propyl)-1H-indol-5-yl)methyl)phenyl)(4-(2-(7-methoxynaphthalen-1-yl)ethyl)piperazin-1-yl)methanone] | 4.2 | 3.1 | 3.6 | 2.3 | 3 | 3.2 | 2.1 | –
